In assay [1] the target is CYP2D6.
In assay [2] the target is T1, DCAMKL1 (Homo sapiens, UniProt O15075).
T1 sequence (O15075 1-740): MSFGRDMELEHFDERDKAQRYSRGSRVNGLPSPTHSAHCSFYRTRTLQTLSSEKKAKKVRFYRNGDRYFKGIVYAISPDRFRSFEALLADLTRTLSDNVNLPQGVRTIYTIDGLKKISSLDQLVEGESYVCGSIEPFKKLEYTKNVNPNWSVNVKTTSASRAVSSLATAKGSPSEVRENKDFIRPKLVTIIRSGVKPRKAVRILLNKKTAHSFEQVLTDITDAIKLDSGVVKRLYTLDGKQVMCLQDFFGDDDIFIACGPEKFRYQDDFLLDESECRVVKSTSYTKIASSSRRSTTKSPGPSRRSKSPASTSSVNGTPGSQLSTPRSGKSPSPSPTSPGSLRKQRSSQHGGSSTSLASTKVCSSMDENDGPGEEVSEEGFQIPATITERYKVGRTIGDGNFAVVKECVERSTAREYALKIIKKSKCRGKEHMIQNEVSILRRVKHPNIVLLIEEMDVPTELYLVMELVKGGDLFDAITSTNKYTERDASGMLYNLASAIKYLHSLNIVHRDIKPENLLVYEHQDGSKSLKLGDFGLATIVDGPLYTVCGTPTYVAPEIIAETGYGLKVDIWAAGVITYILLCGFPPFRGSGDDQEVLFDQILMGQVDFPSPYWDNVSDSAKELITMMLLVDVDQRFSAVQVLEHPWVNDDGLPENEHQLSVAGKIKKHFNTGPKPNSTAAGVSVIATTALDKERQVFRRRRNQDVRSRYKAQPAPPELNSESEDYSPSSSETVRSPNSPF
The conditions noted are these: 1 μM; Run 1, Run 2.

Assay [3] has as its target FGFR2 (Homo sapiens, UniProt P21802). As to conditions: 1 μM; Run 1, Run 2.
The target of assay [4] is T2, c-MER (Homo sapiens, UniProt Q12866).
T2 sequence (Q12866 21-999): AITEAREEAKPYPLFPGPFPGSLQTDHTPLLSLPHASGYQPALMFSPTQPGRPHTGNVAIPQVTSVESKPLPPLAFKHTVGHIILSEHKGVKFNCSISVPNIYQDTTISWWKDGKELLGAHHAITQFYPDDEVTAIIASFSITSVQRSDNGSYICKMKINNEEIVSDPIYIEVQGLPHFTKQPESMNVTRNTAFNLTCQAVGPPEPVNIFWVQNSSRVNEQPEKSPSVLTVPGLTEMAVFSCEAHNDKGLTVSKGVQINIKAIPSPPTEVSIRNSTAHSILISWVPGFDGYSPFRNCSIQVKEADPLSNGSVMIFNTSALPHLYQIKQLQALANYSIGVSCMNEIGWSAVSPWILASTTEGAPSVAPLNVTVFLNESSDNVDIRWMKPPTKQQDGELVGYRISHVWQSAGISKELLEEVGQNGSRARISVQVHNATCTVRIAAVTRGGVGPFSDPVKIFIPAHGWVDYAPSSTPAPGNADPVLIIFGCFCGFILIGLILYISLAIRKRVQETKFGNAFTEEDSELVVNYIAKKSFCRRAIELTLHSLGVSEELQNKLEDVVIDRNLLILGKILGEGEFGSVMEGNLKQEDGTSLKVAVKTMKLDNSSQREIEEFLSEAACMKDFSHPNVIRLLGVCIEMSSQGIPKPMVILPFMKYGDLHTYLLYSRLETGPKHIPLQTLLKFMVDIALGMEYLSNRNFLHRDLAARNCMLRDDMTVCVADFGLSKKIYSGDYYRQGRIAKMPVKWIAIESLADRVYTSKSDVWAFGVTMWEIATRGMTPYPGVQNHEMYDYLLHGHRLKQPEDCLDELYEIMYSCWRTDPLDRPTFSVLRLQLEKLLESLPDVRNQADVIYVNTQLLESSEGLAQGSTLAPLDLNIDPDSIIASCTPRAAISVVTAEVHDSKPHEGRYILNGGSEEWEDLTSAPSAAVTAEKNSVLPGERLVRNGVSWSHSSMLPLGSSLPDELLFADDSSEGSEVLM
Nature of the assay: biochemical. The conditions noted are these: read-out: % enzyme activity, 1 μM; Run 1, Run 2.

The target in assay [5] is CAMK1b (Homo sapiens, UniProt Q6P2M8). As to the kind of experiment: biochemical. The conditions noted are these: read-out: % enzyme activity, 1 μM; Run 1, Run 2.
Chain of CAMK1b (Q6P2M8 whole entry): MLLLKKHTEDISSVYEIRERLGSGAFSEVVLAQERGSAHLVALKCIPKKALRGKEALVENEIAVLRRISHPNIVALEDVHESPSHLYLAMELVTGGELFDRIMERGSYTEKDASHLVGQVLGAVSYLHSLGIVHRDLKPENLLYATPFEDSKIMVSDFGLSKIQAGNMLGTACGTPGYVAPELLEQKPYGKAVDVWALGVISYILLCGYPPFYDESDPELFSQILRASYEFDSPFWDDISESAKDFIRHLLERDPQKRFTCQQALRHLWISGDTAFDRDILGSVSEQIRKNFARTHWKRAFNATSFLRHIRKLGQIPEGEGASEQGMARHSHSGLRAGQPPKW
Assay [6] concerns the target CAMK2g (Homo sapiens, UniProt Q13555). As to the kind of experiment: biochemical. As to conditions: read-out: % enzyme activity, 1 μM; Run 1, Run 2.
The target of assay [7] is LYN B (Homo sapiens, UniProt P07948). Nature of the assay: biochemical. The conditions noted are these: read-out: % enzyme activity, 1 μM; Run 1, Run 2.
Chain of LYN B (P07948 1-491 isoform P07948-2): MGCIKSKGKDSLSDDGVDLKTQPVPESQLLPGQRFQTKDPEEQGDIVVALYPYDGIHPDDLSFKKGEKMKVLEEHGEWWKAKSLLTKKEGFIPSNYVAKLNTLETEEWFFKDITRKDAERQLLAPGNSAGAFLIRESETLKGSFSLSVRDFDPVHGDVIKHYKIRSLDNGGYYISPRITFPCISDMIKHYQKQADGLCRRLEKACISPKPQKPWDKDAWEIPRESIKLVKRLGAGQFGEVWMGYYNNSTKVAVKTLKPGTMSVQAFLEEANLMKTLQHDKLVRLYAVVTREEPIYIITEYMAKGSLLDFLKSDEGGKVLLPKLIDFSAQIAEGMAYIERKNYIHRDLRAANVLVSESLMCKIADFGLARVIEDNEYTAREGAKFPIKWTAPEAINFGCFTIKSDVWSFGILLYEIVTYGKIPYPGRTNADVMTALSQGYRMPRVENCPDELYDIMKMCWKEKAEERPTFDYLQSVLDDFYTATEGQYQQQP
The target in assay [8] is MARK2/PAR-1Ba (Homo sapiens, UniProt Q7KZI7). As to the kind of experiment: biochemical. The conditions noted are these: read-out: % enzyme activity, 1 μM; Run 1, Run 2.
Chain of MARK2/PAR-1Ba (Q7KZI7 whole entry): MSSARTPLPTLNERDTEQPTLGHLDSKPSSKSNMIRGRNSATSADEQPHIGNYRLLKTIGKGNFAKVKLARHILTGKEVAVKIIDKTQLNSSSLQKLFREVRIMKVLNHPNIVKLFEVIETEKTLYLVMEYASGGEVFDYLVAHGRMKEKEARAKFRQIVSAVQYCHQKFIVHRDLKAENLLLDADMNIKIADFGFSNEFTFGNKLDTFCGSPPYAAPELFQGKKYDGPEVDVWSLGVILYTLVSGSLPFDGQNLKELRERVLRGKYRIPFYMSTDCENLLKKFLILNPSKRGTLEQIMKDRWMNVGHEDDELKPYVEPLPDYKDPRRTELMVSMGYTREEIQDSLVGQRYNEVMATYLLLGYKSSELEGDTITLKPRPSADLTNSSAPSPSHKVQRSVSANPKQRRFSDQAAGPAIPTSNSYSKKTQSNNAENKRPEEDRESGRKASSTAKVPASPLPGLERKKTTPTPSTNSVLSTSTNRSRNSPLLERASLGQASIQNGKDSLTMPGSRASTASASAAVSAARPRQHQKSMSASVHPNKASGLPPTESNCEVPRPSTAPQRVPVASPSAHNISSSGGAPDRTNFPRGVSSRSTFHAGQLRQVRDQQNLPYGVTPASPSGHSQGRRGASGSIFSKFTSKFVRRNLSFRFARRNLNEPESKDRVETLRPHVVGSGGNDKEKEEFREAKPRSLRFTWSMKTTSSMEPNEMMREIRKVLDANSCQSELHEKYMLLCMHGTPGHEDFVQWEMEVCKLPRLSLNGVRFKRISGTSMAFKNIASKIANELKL
Assay [9] deals with MLCK2/MYLK2 (Homo sapiens, UniProt Q9H1R3). As to the kind of experiment: biochemical. The conditions noted are these: read-out: % enzyme activity, 1 μM; Run 1, Run 2.
Chain of MLCK2/MYLK2 (Q9H1R3 whole entry): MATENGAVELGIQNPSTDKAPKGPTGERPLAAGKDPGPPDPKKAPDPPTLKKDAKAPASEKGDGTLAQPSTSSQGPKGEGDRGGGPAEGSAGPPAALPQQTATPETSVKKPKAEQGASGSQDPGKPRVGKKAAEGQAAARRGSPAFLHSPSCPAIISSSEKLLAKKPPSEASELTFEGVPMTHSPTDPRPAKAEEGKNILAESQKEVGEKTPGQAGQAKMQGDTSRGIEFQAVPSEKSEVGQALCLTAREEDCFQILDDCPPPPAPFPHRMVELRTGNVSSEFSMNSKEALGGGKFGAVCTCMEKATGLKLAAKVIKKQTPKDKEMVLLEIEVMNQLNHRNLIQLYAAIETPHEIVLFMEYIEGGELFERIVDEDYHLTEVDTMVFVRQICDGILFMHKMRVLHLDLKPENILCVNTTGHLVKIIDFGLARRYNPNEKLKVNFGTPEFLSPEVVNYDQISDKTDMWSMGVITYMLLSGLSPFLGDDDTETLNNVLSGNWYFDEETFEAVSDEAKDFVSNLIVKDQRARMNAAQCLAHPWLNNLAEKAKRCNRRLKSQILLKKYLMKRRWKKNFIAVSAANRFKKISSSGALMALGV
In assay [10] the target is MLK3/MAP3K11 (Homo sapiens, UniProt Q16584). As to the kind of experiment: biochemical. As to conditions: read-out: % enzyme activity, 1 μM; Run 1, Run 2.
Chain of MLK3/MAP3K11 (Q16584 whole entry): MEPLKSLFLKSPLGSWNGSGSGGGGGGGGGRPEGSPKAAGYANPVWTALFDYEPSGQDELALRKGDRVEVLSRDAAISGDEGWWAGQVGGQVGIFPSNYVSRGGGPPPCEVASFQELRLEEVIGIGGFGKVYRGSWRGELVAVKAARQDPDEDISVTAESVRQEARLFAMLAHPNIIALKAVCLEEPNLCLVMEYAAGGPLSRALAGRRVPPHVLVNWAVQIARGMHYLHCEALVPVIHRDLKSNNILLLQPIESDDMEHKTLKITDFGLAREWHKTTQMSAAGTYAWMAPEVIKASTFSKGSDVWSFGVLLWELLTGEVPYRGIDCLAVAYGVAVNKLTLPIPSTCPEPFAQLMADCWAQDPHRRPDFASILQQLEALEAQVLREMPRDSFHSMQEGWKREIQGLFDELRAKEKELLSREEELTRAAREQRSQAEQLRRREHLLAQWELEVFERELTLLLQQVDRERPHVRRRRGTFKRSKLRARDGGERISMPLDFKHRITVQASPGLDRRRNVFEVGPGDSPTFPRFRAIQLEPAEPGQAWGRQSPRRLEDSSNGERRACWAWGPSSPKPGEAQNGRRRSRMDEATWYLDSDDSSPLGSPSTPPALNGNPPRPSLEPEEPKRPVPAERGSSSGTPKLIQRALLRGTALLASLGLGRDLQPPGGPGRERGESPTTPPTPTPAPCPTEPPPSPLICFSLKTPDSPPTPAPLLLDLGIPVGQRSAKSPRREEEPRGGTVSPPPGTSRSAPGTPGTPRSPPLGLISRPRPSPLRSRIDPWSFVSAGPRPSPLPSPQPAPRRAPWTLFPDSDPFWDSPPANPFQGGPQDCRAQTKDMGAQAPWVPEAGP
Assay [11] concerns the target PKCg (Homo sapiens, UniProt P05129). Nature of the assay: biochemical. As to conditions: read-out: % enzyme activity, 1 μM; Run 1, Run 2.
The target in assay [12] is RIPK2 (Homo sapiens, UniProt O43353). As to the kind of experiment: biochemical. As to conditions: read-out: % enzyme activity, 1 μM; Run 1, Run 2.
Chain of RIPK2 (O43353 whole entry): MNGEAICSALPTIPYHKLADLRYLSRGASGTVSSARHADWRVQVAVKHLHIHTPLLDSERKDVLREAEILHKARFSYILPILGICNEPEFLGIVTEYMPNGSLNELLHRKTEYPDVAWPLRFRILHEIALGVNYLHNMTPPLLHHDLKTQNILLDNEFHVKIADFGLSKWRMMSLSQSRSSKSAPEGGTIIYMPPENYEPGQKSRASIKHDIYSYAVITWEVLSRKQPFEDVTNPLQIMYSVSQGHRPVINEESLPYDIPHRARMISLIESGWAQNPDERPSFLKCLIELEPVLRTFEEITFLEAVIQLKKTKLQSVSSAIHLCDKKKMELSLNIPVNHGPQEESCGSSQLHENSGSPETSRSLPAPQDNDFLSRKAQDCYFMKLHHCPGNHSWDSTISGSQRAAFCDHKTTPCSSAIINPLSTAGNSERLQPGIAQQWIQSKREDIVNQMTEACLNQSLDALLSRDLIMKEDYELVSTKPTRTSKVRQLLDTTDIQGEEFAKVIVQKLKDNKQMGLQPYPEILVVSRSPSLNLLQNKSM

A value given as a limit tells only on which side of the number the result lay.

Chain of CAMK2g (Q13555 whole entry): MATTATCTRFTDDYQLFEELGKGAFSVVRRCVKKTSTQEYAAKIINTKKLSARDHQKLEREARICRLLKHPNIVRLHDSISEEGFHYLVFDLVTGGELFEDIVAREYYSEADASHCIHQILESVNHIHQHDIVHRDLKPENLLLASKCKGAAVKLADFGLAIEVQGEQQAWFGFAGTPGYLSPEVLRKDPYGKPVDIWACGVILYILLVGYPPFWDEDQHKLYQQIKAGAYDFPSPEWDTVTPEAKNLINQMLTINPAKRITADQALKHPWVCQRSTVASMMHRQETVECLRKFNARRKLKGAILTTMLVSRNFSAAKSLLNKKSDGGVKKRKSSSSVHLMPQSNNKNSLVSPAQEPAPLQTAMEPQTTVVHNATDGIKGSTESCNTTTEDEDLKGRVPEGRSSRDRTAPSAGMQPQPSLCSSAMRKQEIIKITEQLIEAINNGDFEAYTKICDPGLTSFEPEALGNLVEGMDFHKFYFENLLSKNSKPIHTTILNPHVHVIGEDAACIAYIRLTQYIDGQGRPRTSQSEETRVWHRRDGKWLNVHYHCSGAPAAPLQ

In assay [1], `COc1cc(-c2cncc(-c3ccc(N4C[C@@H](C)N(C)[C@@H](C)C4)cc3)c2C)cc(F)c1C(N)=O` [Compound 26c, 2-Fluoro-6-methoxy-4-(4-methyl-5-(4-((3R,5S)-3,4,5-trimethylpiperazin-1-yl)phenyl)pyridin-3-yl)benzamide] showed a CYP inhibition greater than 50 µM. In addition, the “% enzyme activity” value in assay [2] is recorded as 85.85%; in assay [3] it was 90.89%. For the same compound, the remaining activity at 1 µM turned out to be 101% in assay [4]; 99.4% in assay [5]; 110% in assay [6]; 98.2% in assay [7]; 104% in [8]; 84.8% in [9]. The remaining activity at 1 µM came out at 96.7% in [10], 97.2% in [11] and 89.7% in [12].

With `COc1cc(-c2cncc(-c3ccc(N4CCN(C)CC4)cc3)c2C)cc(F)c1C(N)=O` [Compound 26a, 2-Fluoro-6-methoxy-4-(4-methyl-5-(4-(4-methylpiperazin-1-yl)phenyl)pyridin-3-yl)benzamide], the CYP inhibition in [1] is greater than 50 µM. In addition, the “% enzyme activity” value is 81.46% in [2] and 95.46% in assay [3]. Besides, the remaining activity at 1 µM in assay [4] amounted to 100%; in [5], 97.9%; in assay [6], 103%; in [7], 99.2%; in [8] it was 92.8%; in [9], 66.8%. The remaining activity at 1 µM in assay [10] came to 99.4%; in assay [11], 97%; in assay [12], 71.1%.

For the origin of these results see paper PMC8213057, “Targeting ALK2: An Open Science Approach to Developing Therapeutics for the Treatment of Diffuse Intrinsic Pontine Glioma” (Journal of Medicinal Chemistry, 2020).
